Reference: the supplement of paper PMC10307832

How the values were obtained:
Assay in all cases: relative viability (nuclei count vs DMSO), 5 days (fraction); higher = more cells survive
AZD1208 + Lapatinib = compound: N[C@@H]1CCCN(c2c(/C=C3\SC(=O)NC3=O)cccc2-c2ccccc2)C1 [AZD1208] + CS(=O)(=O)CCNCc1ccc(-c2ccc3ncnc(Nc4ccc(OCc5cccc(F)c5)c(Cl)c4)c3c2)o1 [Lapatinib] (partner 2 µM)
In short: (§1)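 The day after seeding in 1536-well plates, lung cancer cell lines were treated by pin tool with a single drug, or with a fixed anchor-drug dose together with five library-drug doses (not always all listed) in √10 steps. After 5 days, a combined fix-and-stain solution (final 0.05% Triton X-100, 1% formaldehyde, 1 ug/ml Hoechst) was added. Nuclei counted on 4× images gave relative viability as treated counts over vehicle counts, reported as the median of duplicate plates.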

AZD1208 + OSI-027 = compound: N[C@@H]1CCCN(c2c(/C=C3\SC(=O)NC3=O)cccc2-c2ccccc2)C1 [AZD1208] + COc1cccc2cc(-c3nc([C@H]4CC[C@H](C(=O)O)CC4)n4ncnc(N)c34)[nH]c12 [OSI-027] (partner 0.5 µM)
In short: as §1

XMD14-99 + Foretinib = compound: CN1CCN(CC1)C2=CC(=C(C=C2)NC3=NC(=C(S3)C(=O)C4=C(C=CC=C4Cl)Cl)N)OC [XMD14-99] + COc1cc2c(Oc3ccc(NC(=O)C4(C(=O)Nc5ccc(F)cc5)CC4)cc3F)ccnc2cc1OCCCN1CCOCC1 [Foretinib] (partner 0.25 µM)
In short: as §1

AZD1208 + Pemetrexed = compound: N[C@@H]1CCCN(c2c(/C=C3\SC(=O)NC3=O)cccc2-c2ccccc2)C1 [AZD1208] + Nc1nc2[nH]cc(CCc3ccc(C(=O)N[C@@H](CCC(=O)O)C(=O)O)cc3)c2c(=O)[nH]1 [Pemetrexed] (partner 0.2 µM)
In short: as §1

Cell Line | relative viability (AZD1208 + Lapatinib; first compound 0.08 µM) | relative viability (AZD1208 + Lapatinib; first compound 0.253 µM) | relative viability (AZD1208 + Lapatinib; first compound 0.8 µM) | relative viability (AZD1208 + Lapatinib; first compound 2.53 µM) | relative viability (AZD1208 + Lapatinib; first compound 8 µM) | relative viability (AZD1208 + OSI-027; first compound 0.08 µM) | relative viability (AZD1208 + OSI-027; first compound 0.253 µM) | relative viability (AZD1208 + OSI-027; first compound 0.8 µM) | relative viability (AZD1208 + OSI-027; first compound 2.53 µM) | relative viability (AZD1208 + OSI-027; first compound 8 µM) | relative viability (XMD14-99 + Foretinib; first compound 0.08 µM) | relative viability (XMD14-99 + Foretinib; first compound 0.8 µM) | relative viability (XMD14-99 + Foretinib; first compound 2.53 µM) | relative viability (XMD14-99 + Foretinib; first compound 8 µM) | relative viability (AZD1208 + Pemetrexed; first compound 0.08 µM) | relative viability (AZD1208 + Pemetrexed; first compound 0.253 µM) | relative viability (AZD1208 + Pemetrexed; first compound 0.8 µM) | relative viability (AZD1208 + Pemetrexed; first compound 2.53 µM) | relative viability (AZD1208 + Pemetrexed; first compound 8 µM)
NCI-H23 | 1.06 | 1.22 | 0.945 | 0.98 | 0.735 | 0.576 | 0.705 | 0.523 | 0.37 | 0.382 | 0.908 | 0.981 | 0.843 | 0.821 | 0.604 | 0.698 | 0.632 | 0.704 | 0.703
NCI-H322M | 0.574 | 0.568 | 0.507 | 0.578 | 0.56 | 0.569 | 0.514 | 0.459 | 0.508 | 0.462 | 1.01 | 0.893 | 0.932 | 0.736 | 0.565 | 0.654 | – | 0.622 | 0.608
NCI-H358 | 0.343 | 0.44 | 0.38 | 0.36 | 0.35 | 0.649 | 0.738 | 0.626 | 0.695 | 0.472 | 0.759 | 0.745 | 0.574 | 0.392 | 0.153 | 0.181 | 0.167 | 0.173 | 0.145
NCI-H460 | 1.03 | 1.71 | 0.867 | 1.01 | 0.964 | 0.59 | 0.853 | 0.633 | 0.647 | 0.477 | 1.03 | 1.03 | 1.01 | 0.808 | 0.065 | 0.0614 | 0.0662 | 0.0615 | 0.055
NCI-H520 | 0.805 | 1.07 | 0.806 | 0.83 | 0.629 | 0.207 | 0.258 | 0.189 | 0.179 | 0.188 | 0.711 | 0.712 | 0.662 | 0.501 | 0.685 | 0.703 | 0.555 | 0.524 | 0.446
NCI-H596 | 1.05 | 1.1 | 0.967 | 0.984 | 0.835 | 0.666 | 0.817 | 0.62 | 0.56 | 0.359 | 0.957 | 0.895 | 0.832 | 0.955 | 0.523 | 0.507 | 0.537 | 0.498 | 0.407
NCI-H647 | 1.04 | 1.58 | 1.04 | 0.97 | 0.742 | 0.665 | 0.885 | 0.508 | 0.515 | 0.47 | 1.3 | 1.15 | 1.22 | 1.01 | 0.19 | 0.195 | 0.17 | 0.188 | 0.165
NCI-H650 | 1.06 | 0.771 | 1.06 | 0.648 | 0.817 | 0.574 | 0.435 | 0.477 | 0.394 | 0.398 | 1.05 | 1.01 | 0.944 | 0.935 | 0.893 | 0.939 | 0.893 | 0.703 | 0.867
NCI-H661 | 0.397 | 0.425 | 0.396 | 0.383 | 0.46 | 0.613 | 0.714 | 0.648 | 0.657 | 0.663 | 0.93 | 0.883 | 0.796 | 0.681 | 0.956 | 0.9 | 0.94 | 0.942 | 0.955
NCI-H838 | 0.988 | 1.17 | 0.856 | 0.936 | 0.86 | 0.378 | 0.453 | 0.38 | 0.326 | 0.301 | 1.01 | 0.943 | 0.926 | 0.887 | 0.239 | 0.26 | 0.243 | 0.26 | 0.228
NCI-H1355 | 1.04 | 0.995 | 0.777 | 1.09 | 0.71 | 0.389 | 0.31 | 0.315 | 0.285 | 0.273 | 0.994 | 0.913 | 0.808 | 0.706 | 1.1 | 0.944 | 0.934 | 1.04 | 1.04
NCI-H1395 | 1.12 | 0.918 | 0.945 | 1.1 | 0.812 | 0.624 | 0.569 | 0.578 | 0.624 | 0.491 | 0.986 | 0.965 | 0.998 | 0.901 | 0.937 | 0.859 | 0.699 | 0.787 | 0.673
NCI-H1437 | 0.833 | 1.04 | 0.69 | 0.775 | 0.691 | 0.821 | 1.07 | 0.837 | 0.774 | 0.764 | 1.25 | 1.05 | 1.06 | 0.891 | 0.302 | 0.307 | 0.327 | 0.355 | 0.322
NCI-H1563 | 0.918 | 1 | 1.02 | 1.01 | 0.915 | 0.721 | 0.708 | 0.704 | 0.695 | 0.596 | 0.878 | 0.941 | 0.871 | 0.74 | 0.762 | 0.764 | 0.734 | 0.705 | 0.768
NCI-H1650 | 0.777 | 0.878 | 0.735 | 0.602 | 0.667 | 0.592 | 0.516 | 0.568 | 0.434 | 0.473 | 1.14 | 1.27 | 1.13 | 0.941 | 0.4 | 0.421 | 0.368 | 0.401 | 0.478
NCI-H1651 | 0.805 | 0.784 | 0.717 | 0.643 | 0.62 | 0.679 | 0.878 | 0.534 | 0.595 | 0.503 | 0.811 | 0.706 | 0.866 | 0.694 | 0.626 | 0.57 | – | 0.569 | 0.555
NCI-H1666 | 0.442 | 0.574 | 0.452 | 0.389 | 0.456 | 0.779 | 0.829 | 0.682 | 0.826 | 0.775 | 1.02 | 0.859 | 0.866 | 0.712 | 0.826 | 0.874 | 0.792 | 0.823 | 0.896
NCI-H1734 | 1.01 | 1.06 | 1.01 | 0.822 | 0.627 | 0.51 | 0.534 | 0.495 | 0.468 | 0.342 | 0.821 | 0.826 | 0.793 | 0.7 | 0.404 | 0.409 | 0.442 | 0.427 | 0.435
NCI-H1755 | 1.05 | 1.09 | 1.01 | 0.978 | 0.848 | 0.69 | 0.617 | 0.582 | 0.59 | 0.437 | 0.916 | 0.9 | 0.817 | 0.687 | 0.451 | 0.457 | 0.532 | 0.426 | 0.413
NCI-H1793 | 0.563 | 0.982 | 0.629 | 0.678 | 0.58 | 0.244 | 0.254 | 0.268 | 0.31 | 0.25 | 0.704 | 0.608 | 0.644 | 0.641 | 0.828 | 0.954 | 0.716 | 0.935 | 0.718
NCI-H1915 | 0.985 | 1.08 | 1.02 | 0.962 | 0.977 | 0.571 | 0.524 | 0.569 | 0.428 | 0.451 | 1.06 | 1.02 | 0.961 | 0.859 | 0.452 | 0.483 | 0.528 | 0.462 | 0.443
NCI-H1944 | 0.8 | 0.788 | 0.708 | 0.712 | 0.484 | 0.407 | 0.341 | 0.305 | 0.282 | 0.249 | 0.886 | 0.841 | 0.7 | 0.631 | 0.593 | 0.652 | 0.591 | 0.579 | 0.535
NCI-H1975 | 0.916 | 1.1 | 0.838 | 0.893 | 1.07 | 0.682 | 0.688 | 0.68 | 0.758 | 0.594 | 1.01 | 0.92 | 0.924 | 0.817 | 0.288 | 0.295 | 0.282 | 0.286 | 0.327
NCI-H1993 | – | 0.749 | 0.689 | 0.794 | 0.75 | 0.599 | 0.447 | 0.616 | 0.491 | 0.536 | 0.804 | 0.674 | 0.643 | 0.595 | 0.481 | 0.527 | 0.526 | 0.568 | 0.413
NCI-H2009 | 0.982 | 1.21 | 0.817 | 0.742 | 0.893 | 0.63 | 0.645 | 0.537 | 0.569 | 0.553 | 1.21 | 1.25 | 1.14 | 1.12 | 1.01 | 1.03 | 0.917 | 1.11 | 1.06
NCI-H2023 | 0.757 | 0.903 | 0.68 | 0.668 | 0.635 | 0.342 | 0.339 | 0.324 | 0.316 | 0.253 | 0.986 | 0.842 | 0.704 | 0.698 | 0.263 | 0.207 | 0.241 | 0.243 | 0.229
NCI-H2085 | 0.768 | 0.862 | 0.7 | 0.687 | 0.726 | 0.796 | 0.933 | 0.585 | 0.934 | 0.661 | 0.915 | 0.959 | 0.704 | 0.551 | 0.912 | 0.971 | 0.936 | 0.817 | 0.893
NCI-H2087 | 1.11 | 1.32 | 1.13 | 1.47 | 0.9 | 0.518 | 0.508 | 0.427 | 0.513 | 0.445 | 1.05 | 0.86 | 0.746 | 0.569 | 0.664 | 0.713 | 0.475 | 0.649 | 0.627
